# Source: patent US20140017223A1, “Pharmaceutical Compositions Comprising A Pancreatic Enzyme Preparation With Viral Infectivity Reduced Below A Significant Level And Methods Of Preparing And Using The Same” (Aptalis Pharma Canada Inc., priority 2010, published 2014)
# “And” between values parts separate entries of the source, which are not always exact repeats. Identical values can stand only once.
# Key:
# EMCV = test: Inactivation of spiked EMCV in pancrelipase by BPL, TCID50 titration on VERO cells (Example 2); assay type: cell-based, porcine encephalomyocarditis virus (EMCV); conditions: 48 h, 20° C.; for Detected EMCV titer: 0*=below detection limit of 10^3 TCID50/g
# Method: Four different lots of pancrelipase powders were dissolved in 100 mM Tris, pH=8.3, at a concentration of 100 mg/ml. EMCV virus stock (prepared by Meng X J, Paul P S, Vaughn E M, Zimmerman J J. Development of a radiolabeled nucleic acid probe for the detection of encephalomyocarditis virus of swine. J Vet Diagn Invest. 1993 5:254-8) was mixed with the pancrelipase using slow shaking at room temperature for one day such that the final concentration of pancrelipase was 100 mg/ml. Aliquots were taken from the EMCV-spiked pancrelipase stocks and each was incubated with different concentrations of BPL (available from Sigma-Aldrich, St. Louis, Mo.) (except the control) for 48 hours at room temperature (20° C.). The level of inactivation was measured by the titration of EMCV infectivity on VERO cells using serial dilutions and determining the TCID50 as described in Hierholzer, J. C., Killington, R. A., 1996. Virus isolation and quantitation. In: Mahy, B. W. J., Kangro, H. O. (Eds.), Virology methods manual. Academic Press, London, pp. 25-46.
# PPV = test: Inactivation of PPV by BPL (30 min, 25° C.), BPL then inactivated with sodium thiosulfate (Example 9); assay type: cell-based, porcine parvovirus (PPV); conditions: thiosulfate quench
# Method: 4.5 g pancrelipase (PEP) powder was dissolved in 44 ml ice cold 100 mM Tris (pH=8.3) by frequently mixing a 50-ml plastic tube that was kept on ice most of the time except when shaking. The dissolved sample was spiked with 1 ml (2×0.5 ml) PPV stock (prepared at the Institut National de la Recherche Scientifique, Québec, Canada using standard protocols (Arella et al., Physicichemical properties, production, and purification of parvoviruses. 1990, In Tijssen, P. (ed.), CRC handbook of parvoviruses. Boca Raton, Fla.: CRC Press, 11-30)) 10^7 FFID50/ml; see Example 8 and Table 8) and was mixed for another 10 minutes.
# Three aliquots of the dissolved pancrelipase were transferred into tubes (A-C) and kept on ice while (A) no BPL—the control), (B) (0.4 vol % BPL), or (C) (0.8 vol % BPL) was added to them. After a brief mixing by a vortex machine, the tubes were incubated for 30 minutes at 25° C. At the end of the incubation, the tubes were transferred on to ice and immediately four aliquots were transferred from each experimental condition into new tubes (a-d). These tubes were placed into the mixture of acetone/dry ice for fast freezing. Later, the samples were stored at −80° C.
# From the remaining solutions, aliquots from each experiment (using triplicates) were diluted 100 times in cell culture medium containing sodium thiosulfate and supplemented with traces of chloroform. Samples were briefly mixed and kept at 4° C. for at least 6 hours before further dilution for the FFID50 infectivity determination. See Example 9.
# The experiment above was repeated two more times (altogether: experiments 1-3).
# Table 9 presents the result of the inactivation of PPV by BPL for 30 min at 25° C. and subsequent inactivation of the BPL by incubating the BPL-containing PEP solutions with sodium thiosulfate for at least 6 hours at 4° C. As discussed above, three independent experiments with BPL inactivation after PPV spiking were followed by inactivation of BPL by sodium thiosulfate (3 parallels for each experiment).
# protease = test: Protease activity of pancrelipase after BPL treatment, freezing and lyophilization (USP 31 method); assay type: biochemical; conditions: for Loss of Protease Activity: pancrelipase, freezing, lyophilization, precision 5-10%
# Method: (§1) Enzymatic activity for the enzymes of a PEP (e.g., proteases, lipases, and amylases) can be determined, for example, by using the United States Pharmacopeia (USP) monographed methods (The United States Pharmacopeia and the National Formulary (USP 31/NF 26). 2008. Rockville (MD): United States Pharmacopeial Convention, Inc.).
# (§2) The samples c-d from all the experiments were tested for lipase, protease, and amylase enzymatic activity using USP 31 monographed methods. See Example 11 and Table 11.
# (§3) Table 11 presents the lipase, protease, and amylase activity for aliquots of the pancrelipase after BPL treatment for 30 min at 25° C. followed by freezing and lyophilization (same treatment as for samples in Example 10).
# amylase = test: Amylase activity of pancrelipase after BPL treatment, freezing and lyophilization (USP 31 method); assay type: biochemical; conditions: for Loss of Amylase Activity: pancrelipase, freezing, lyophilization, precision 5-10%
# Method: as §1, §2, §3
# [1] = lyophilized samples treated with 0.4% BPL and 0.8% BPL
structure (smiles),measurement,setting,value
"O=C1CCO1 [BPL, Beta-propiolactone]",EMCV Titer reduction,"EMCV; PEP #1, 0.1% (v/v) BPL",1.33 × 10^2 TCID50/g
same,Detected EMCV titer,"EMCV; PEP #1, 0.1% (v/v) BPL",4.22 × 10^5 TCID50/g
same,EMCV Titer reduction,"EMCV; PEP #1, 0.2% (v/v) BPL",>10^5 TCID50/g
same,Detected EMCV titer,"EMCV; PEP #1, 0.2% (v/v) BPL",< 0* TCID50/g
same,EMCV Titer reduction,"EMCV; PEP #1, 0.4% (v/v) BPL",>10^5 TCID50/g
same,Detected EMCV titer,"EMCV; PEP #1, 0.4% (v/v) BPL",< 0* TCID50/g
same,EMCV Titer reduction,"EMCV; PEP #1, 0.8% (v/v) BPL",>10^5 TCID50/g
same,Detected EMCV titer,"EMCV; PEP #1, 0.8% (v/v) BPL",< 0* TCID50/g
same,EMCV Titer reduction,"EMCV; PEP #2, 0.1% (v/v) BPL",1.78 × 10^2 TCID50/g
same,Detected EMCV titer,"EMCV; PEP #2, 0.1% (v/v) BPL",3.16 × 10^5 TCID50/g
same,EMCV Titer reduction,"EMCV; PEP #2, 0.2% (v/v) BPL",>10^5 TCID50/g
same,Detected EMCV titer,"EMCV; PEP #2, 0.2% (v/v) BPL",< 0* TCID50/g
same,EMCV Titer reduction,"EMCV; PEP #2, 0.4% (v/v) BPL",>10^5 TCID50/g
same,Detected EMCV titer,"EMCV; PEP #2, 0.4% (v/v) BPL",< 0* TCID50/g
same,EMCV Titer reduction,"EMCV; PEP #2, 0.8% (v/v) BPL",>10^5 TCID50/g
same,Detected EMCV titer,"EMCV; PEP #2, 0.8% (v/v) BPL",< 0* TCID50/g
same,EMCV Titer reduction,"EMCV; PEP #3, 0.1% (v/v) BPL",>10^5 TCID50/g
same,Detected EMCV titer,"EMCV; PEP #3, 0.1% (v/v) BPL",< 0* TCID50/g
same,EMCV Titer reduction,"EMCV; PEP #3, 0.2% (v/v) BPL",>10^5 TCID50/g
same,Detected EMCV titer,"EMCV; PEP #3, 0.2% (v/v) BPL",< 0* TCID50/g
same,EMCV Titer reduction,"EMCV; PEP #3, 0.4% (v/v) BPL",>10^5 TCID50/g
same,Detected EMCV titer,"EMCV; PEP #3, 0.4% (v/v) BPL",< 0* TCID50/g
same,EMCV Titer reduction,"EMCV; PEP #3, 0.8% (v/v) BPL",>10^5 TCID50/g
same,Detected EMCV titer,"EMCV; PEP #3, 0.8% (v/v) BPL",< 0* TCID50/g
same,EMCV Titer reduction,"EMCV; PEP #4, 0.1% (v/v) BPL",1.33 × 10^3 TCID50/g
same,Detected EMCV titer,"EMCV; PEP #4, 0.1% (v/v) BPL",7.50 × 10^4 TCID50/g
same,EMCV Titer reduction,"EMCV; PEP #4, 0.2% (v/v) BPL",>10^5 TCID50/g
same,Detected EMCV titer,"EMCV; PEP #4, 0.2% (v/v) BPL",< 0* TCID50/g
same,EMCV Titer reduction,"EMCV; PEP #4, 0.4% (v/v) BPL",>10^5 TCID50/g
same,Detected EMCV titer,"EMCV; PEP #4, 0.4% (v/v) BPL",< 0* TCID50/g
same,EMCV Titer reduction,"EMCV; PEP #4, 0.8% (v/v) BPL",>10^5 TCID50/g
same,Detected EMCV titer,"EMCV; PEP #4, 0.8% (v/v) BPL",< 0* TCID50/g
same,Mean Infectivity ± SD,"PPV; 0.4% BPL, 30 min 25° C.",2.63 ± 6.86 × 10^4 FFID50/g
same,PPV Titer reduction,"PPV; 0.4% BPL, 30 min 25° C.",0.65 × 10^2 FFID50/g
same,Average Results per Sample,"PPV; 0.4% BPL, 30 min 25° C., experiments B1-B3",2.32 × 10^4 FFID50/g and 2.15 × 10^4 FFID50/g and 3.42 × 10^4 FFID50/g
same,"Results (PPV infectivity, single determinations)","PPV; 0.4% BPL, 30 min 25° C., experiments B1-B3, 3 parallels each",2.50 × 10^4 FFID50/g and 1.98 × 10^4 FFID50/g and 3.14 × 10^4 FFID50/g and 3.96 × 10^4 FFID50/g
same,Reduction of virus infectivity,"PPV; 0.4 vol % BPL, room temperature, 30 minutes",more than 60 times
same,Mean Infectivity ± SD,"PPV; 0.8% BPL, 30 min 25° C.",5.25 ± 5.25 × 10^3 FFID50/g
same,PPV Titer reduction,"PPV; 0.8% BPL, 30 min 25° C.",0.31 × 10^4 FFID50/g
same,Inactivation of PPV,"PPV; 0.8% BPL, room temperature, 30 minutes",three magnitudes of order
same,Protease activity maintained,protease; [1],maintained the majority
same,Loss of Protease Activity,protease; 0.4% BPL 30 min 25° C.,0%
same,Loss of Protease Activity,protease; 0.8% BPL 30 min 25° C.,0%
same,Amylase activity maintained,amylase; [1],maintained the majority
same,Loss of Amylase Activity,amylase; 0.4% BPL 30 min 25° C.,11.40%
same,Loss of Amylase Activity,amylase; 0.8% BPL 30 min 25° C.,28.22%
